# Results published in patent publication US9758527B2, “Cyclohexene derivative, preparation method therefor, and pharmaceutical composition for preventing or treating metabolic diseases, containing same as active ingredient” (HYUNDAI PHARM CO., LTD., priority 2014, dated 2017).
# Where two headings read alike, the source gives them in different places.
# Molecular target: T1, G protein-coupled receptor 119 (GPR-119) (Mesocricetus auratus, UniProt A0A1U8CD06)
# T1 construct: hamster-derived β-cells containing G protein-coupled receptor 119 (GPR-119), HIT-T15 cells; host or cells: HIT-T15 (hamster pancreatic β-cells)
# T1 sequence (A0A1U8CD06 1-334): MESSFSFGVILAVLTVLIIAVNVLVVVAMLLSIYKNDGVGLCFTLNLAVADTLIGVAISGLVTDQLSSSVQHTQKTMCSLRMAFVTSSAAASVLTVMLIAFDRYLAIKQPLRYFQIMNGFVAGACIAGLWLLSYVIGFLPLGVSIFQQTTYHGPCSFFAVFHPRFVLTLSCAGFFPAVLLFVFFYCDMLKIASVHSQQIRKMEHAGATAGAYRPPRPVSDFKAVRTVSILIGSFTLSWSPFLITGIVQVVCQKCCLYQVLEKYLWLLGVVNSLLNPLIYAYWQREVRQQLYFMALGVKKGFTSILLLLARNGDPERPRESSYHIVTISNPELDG
# Experiment: Evaluation of cAMP activity in HIT-T15 cells (HTRF cAMP dynamic kit)
# Type: cell-based, hamster
# Conditions: cAMP activation
# Method: To check whether the cyclohexene derivatives according to the present invention activate cyclic adenosine monophosphate (cAMP), experiments were carried out, as follows.
# The HIT-T15 cells were plated on a 96-well plate at 60,000 cells per well. On the next day of plating, the cells were treated with a varying concentration of each of the example compounds according to the present invention, and incubated at 37° C. for an hour. In this case, each of the treated compounds was used at six concentrations, ranging from […], to treat the cells.
# The cyclic adenosine monophosphate (cAMP) activity was measured according to the manufacturer's instruction using a cAMP dynamic kit commercially available from Cis Bio Inc. (Bedford, Mass.). The cells were lysed, and a level of cAMP was determined by a competitive immunoassay using D2-labeled cAMP and a cryptate-labeled anti-cAMP antibody. Fluorescence was read in Flex Station (Molecular Devices). […] Unlabeled cAMP in the cell lysate competed with the D2-labeled cAMP against the cryptate-labeled antibody. Since a decrease in the measured intensity of the FRET signals represents a level of cAMP in the cells, the cAMP activities of the compounds are calculated as a change in FRET signals by adjusting an amount of dimethyl sulfoxide (DMSO).
# [1] = 1 h at 37° C., six concentrations, read-out: EC50
EC50 [1],EC50 (read-out: EC50 value),Compound
40 nM,≤ 50 nM,"CC(C)(C)OC(=O)N1CCC(COc2ccc(C3=CCC(C(=O)NC4CC4)CC3)cc2)CC1 (stereo not drawn) [Example 2, tert-butyl 4-((4-(4-(cyclopropylcarbamoyl)cyclohex-1-enyl)phenoxy)methyl)piperidine-1-carboxylate]"
34 nM,≤ 50 nM,"CC(C)(C)OC(=O)N1CCC(COc2ccc(C3=CCC(C(=O)NCC(F)F)CC3)cc2)CC1 (stereo not drawn) [Example 3, tert-butyl 4-((4-(4-(2,2-difluoroethylcarbamoyl)cyclohex-1-enyl)phenoxy)methyl)piperidine-1-carboxylate]"
150 nM,–,"CC(C)(C)OC(=O)N1CCC(COc2ccc(C3=CCC(C(=O)NC[C@@H](O)CO)CC3)cc2)CC1 (stereo partly drawn) [Example 4, tert-butyl 4-((4-(4-((R)-2,3-dihydroxypropylcarbamoyl)cyclohex-1-enyl)phenoxy)methyl)piperidine-1-carboxylate]"
29 nM,≤ 50 nM,"CC(C)(C)OC(=O)N1CCC(COc2ccc(C3=CCC(C(=O)N4CC[C@@H](O)C4)CC3)cc2)CC1 (stereo partly drawn) [Example 5, tert-butyl 4-((4-(4-((R)-3-hydroxypyrrolidine-1-carbonyl)cyclohex-1-enyl)phenoxy)methyl)piperidine-1-carboxylate]"
38 nM,≤ 50 nM,"CN(CCCO)C(=O)C1CC=C(c2ccc(OCC3CCN(C(=O)OC(C)(C)C)CC3)cc2)CC1 (stereo not drawn) [Example 6, tert-butyl 4-((4-(4-((3-hydroxypropyl)(methyl)carbamoyl)cyclohex-1-enyl)phenoxy)methyl)piperidine-1-carboxylate]"
13 nM,≤ 50 nM,"CC(C)(C)OC(=O)N1CCC(COc2ccc(C3=CCC(C(=O)N4CCOCC4)CC3)cc2)CC1 (stereo not drawn) [Example 7, tert-butyl 4-((4-(4-(morpholine-4-carbonyl)cyclohex-1-enyl)phenoxy)methyl)piperidine-1-carboxylate]"
90 nM,–,"CCc1cnc(N2CCC(COc3ccc(C4=CCC(C(=O)N[C@H](C)CO)CC4)cc3)CC2)nc1 (stereo partly drawn) [Example 8, 4-(4-((1-(5-ethylpyrimidin-2-yl)piperidin-4-yl)methoxy)phenyl)-N-((R)-1-hydroxypropan-2-yl)cyclohex-3-enecarboxamide]"
75 nM,–,"CCc1cnc(N2CCC(COc3ccc(C4=CCC(C(=O)NCCCO)CC4)cc3)CC2)nc1 (stereo not drawn) [Example 9, 4-(4-((1-(5-ethylpyrimidin-2-yl)piperidin-4-yl)methoxy)phenyl)-N-(3-hydroxypropyl)cyclohex-3-enecarboxamide]"
500 nM,–,"CC(C)(C)OC(=O)N1CCC(COc2ccc(C3=CCC(C(=O)NC[C@@H](O)CO)CC3)nc2)CC1 (stereo partly drawn) [Example 10, tert-butyl 4-((6-(4-((R)-2,3-dihydroxypropylcarbamoyl)cyclohex-1-enyl)pyridin-3-yloxy)methyl)piperidine-1-carboxylate]"
110 nM,–,"C[C@@H](CO)NC(=O)C1CC=C(c2ccc(OCC3CCN(C(=O)OC(C)(C)C)CC3)cn2)CC1 (stereo partly drawn) [Example 11, tert-butyl 4-((6-(4-((S)-1-hydroxypropan-2-ylcarbamoyl)cyclohex-1-enyl)pyridin-3-yloxy)methyl)piperidine-1-carboxylate]"
80 nM,–,"CCc1cnc(N2CCC(COc3ccc(C4=CCC(C(=O)NC[C@@H](O)CO)CC4)cc3)CC2)nc1 (stereo partly drawn) [Example 12, N-((R)-2,3-dihydroxypropyl)-4-(4-((1-(5-ethylpyrimidin-2-yl)piperidin-4-yl)methoxy)phenyl)cyclohex-3-enecarboxamide]"
13 nM,≤ 50 nM,"CCc1cnc(N2CCC(COc3ccc(C4=CCC(C(=O)N5CCOCC5)CC4)cc3)CC2)nc1 (stereo not drawn) [Example 13, (4-(4-((1-(5-ethylpyrimidin-2-yl)piperidin-4-yl)methoxy)phenyl)cyclohex-3-enyl)(morpholino)methanone]"
370 nM,–,"CCc1cnc(N2CCC(COc3ccc(C4=CCC(C(=O)NC(CO)CO)CC4)cc3)CC2)nc1 (stereo not drawn) [Example 15, N-(1,3-dihydroxypropan-2-yl)-4-(4-((1-(5-ethylpyrimidin-2-yl)piperidin-4-yl)methoxy)phenyl)cyclohex-3-enecarboxamide]"
13 nM,≤ 50 nM,"CCc1cnc(N2CCC(COc3ccc(C4=CCC(C(=O)N5CC[C@@H](O)C5)CC4)cc3)CC2)nc1 (stereo partly drawn) [Example 16, (4-(4-((1-(5-ethylpyrimidin-2-yl)piperidin-4-yl)methoxy)phenyl)cyclohex-3-enyl)((R)-3-hydroxypyrrolidin-1-yl)methanone]"
85 nM,–,"CC(C)c1noc(N2CCC(COc3ccc(C4=CCC(C(=O)NC[C@@H](O)CO)CC4)cc3)CC2)n1 (stereo partly drawn) [Example 17, N-((R)-2,3-dihydroxypropyl)-4-(4-((1-(3-isopropyl-1,2,4-oxadiazol-5-yl)piperidin-4-yl)methoxy)phenyl)cyclohex-3-enecarboxamide]"
170 nM,–,"CC(C)c1noc(N2CCC(COc3ccc(C4=CCC(C(=O)NC[C@H](O)CO)CC4)cc3)CC2)n1 (stereo partly drawn) [Example 18, N-((S)-2,3-dihydroxypropyl)-4-(4-((1-(3-isopropyl-1,2,4-oxadiazol-5-yl)piperidin-4-yl)methoxy)phenyl)cyclohex-3-enecarboxamide]"
110 nM,–,"CC(C)c1noc(N2CCC(COc3ccc(C4=CCC(C(=O)N[C@@H](C)CO)CC4)cc3)CC2)n1 (stereo partly drawn) [Example 19, N-((S)-1-hydroxypropan-2-yl)-4-(4-((1-(3-isopropyl-1,2,4-oxadiazol-5-yl)piperidin-4-yl)methoxy)phenyl)cyclohex-3-enecarboxamide]"
90 nM,–,"CC(C)c1noc(N2CCC(COc3ccc(C4=CCC(C(=O)N[C@H](C)CO)CC4)cc3)CC2)n1 (stereo partly drawn) [Example 20, N-((R)-1-hydroxypropan-2-yl)-4-(4-((1-(3-isopropyl-1,2,4-oxadiazol-5-yl)piperidin-4-yl)methoxy)phenyl)cyclohex-3-enecarboxamide]"
16 nM,≤ 50 nM,"CCc1cnc(N2CCC(COc3ccc(C4=CCC(C(=O)N(C)CCO)CC4)cc3)CC2)nc1 (stereo not drawn) [Example 21, 4-(4-((1-(5-ethylpyrimidin-2-yl)piperidin-4-yl)methoxy)phenyl)-N-(2-hydroxyethyl)-N-methylcyclohex-3-enecarboxamide]"
41 nM,≤ 50 nM,"CC(C)c1noc(N2CCC(COc3ccc(C4=CCC(C(=O)NCC(C)(C)CO)CC4)cc3)CC2)n1 (stereo not drawn) [Example 22, N-(3-hydroxy-2,2-dimethylpropyl)-4-(4-((1-(3-isopropyl-1,2,4-oxadiazol-5-yl)piperidin-4-yl)methoxy)phenyl)cyclohex-3-enecarboxamide]"
160 nM,–,"CC(C)c1noc(N2CCC(COc3ccc(C4=CCC(C(=O)NC(CO)CO)CC4)cc3)CC2)n1 (stereo not drawn) [Example 23, N-(1,3-dihydroxypropan-2-yl)-4-(4-((1-(3-isopropyl-1,2,4-oxadiazol-5-yl)piperidin-4-yl)methoxy)phenyl)cyclohex-3-enecarboxamide]"
260 nM,–,"C[C@@H](CO)NC(=O)C1CC=C(c2ccc(OCC3CCN(C(=O)OC(C)(C)C)CC3)nc2)CC1 (stereo partly drawn) [Example 24, tert-butyl 4-((5-(4-((S)-1-hydroxypropan-2-ylcarbamoyl)cyclohex-1-enyl)pyridin-2-yloxy)methyl)piperidine-1-carboxylate]"
210 nM,–,"C[C@H](CO)NC(=O)C1CC=C(c2ccc(OCC3CCN(C(=O)OC(C)(C)C)CC3)nc2)CC1 (stereo partly drawn) [Example 25, tert-butyl 4-((5-(4-((R)-1-hydroxypropan-2-ylcarbamoyl)cyclohex-1-enyl)pyridin-2-yloxy)methyl)piperidine-1-carboxylate]"
250 nM,–,"C[C@H](O)CNC(=O)C1CC=C(c2ccc(OCC3CCN(C(=O)OC(C)(C)C)CC3)nc2)CC1 (stereo partly drawn) [Example 26, tert-butyl 4-((5-(4-((S)-2-hydroxypropylcarbamoyl)cyclohex-1-enyl)pyridin-2-yloxy)methyl)piperidine-1-carboxylate]"
310 nM,–,"C[C@@H](O)CNC(=O)C1CC=C(c2ccc(OCC3CCN(C(=O)OC(C)(C)C)CC3)nc2)CC1 (stereo partly drawn) [Example 27, tert-butyl 4-((5-(4-((R)-2-hydroxypropylcarbamoyl)cyclohex-1-enyl)pyridin-2-yloxy)methyl)piperidine-1-carboxylate]"
110 nM,–,"CC(C)c1noc(N2CCC(COc3ccc(C4=CCC(C(=O)NC[C@@H](C)O)CC4)cc3)CC2)n1 (stereo partly drawn) [Example 28, N-((R)-2-hydroxypropyl)-4-(4-((1-(3-isopropyl-1,2,4-oxadiazol-5-yl)piperidin-4-yl)methoxy)phenyl)cyclohex-3-enecarboxamide]"
95 nM,–,"CC(C)c1noc(N2CCC(COc3ccc(C4=CCC(C(=O)NC[C@H](C)O)CC4)cc3)CC2)n1 (stereo partly drawn) [Example 29, N-((S)-2-hydroxypropyl)-4-(4-((1-(3-isopropyl-1,2,4-oxadiazol-5-yl)piperidin-4-yl)methoxy)phenyl)cyclohex-3-enecarboxamide]"
